Here are results for one molecule from ChEMBL document CHEMBL1149376, “Sulfamoyl-4-oxoquinoline-3-carboxamides: novel potentiators of defective DeltaF508-cystic fibrosis transmembrane conductance regulator chloride channel gating” (Bioorg Med Chem Lett, 2006).

This experiment addresses Cystic fibrosis transmembrane conductance regulator (Homo sapiens) (UniProt P13569). Briefly: Potentiation of deltaF508 mutated CFTR dependent iodide influx at 0.1 uM. It counts as functional.

Cystic fibrosis transmembrane conductance regulator (Homo sapiens), sequence (P13569 whole entry, looked up): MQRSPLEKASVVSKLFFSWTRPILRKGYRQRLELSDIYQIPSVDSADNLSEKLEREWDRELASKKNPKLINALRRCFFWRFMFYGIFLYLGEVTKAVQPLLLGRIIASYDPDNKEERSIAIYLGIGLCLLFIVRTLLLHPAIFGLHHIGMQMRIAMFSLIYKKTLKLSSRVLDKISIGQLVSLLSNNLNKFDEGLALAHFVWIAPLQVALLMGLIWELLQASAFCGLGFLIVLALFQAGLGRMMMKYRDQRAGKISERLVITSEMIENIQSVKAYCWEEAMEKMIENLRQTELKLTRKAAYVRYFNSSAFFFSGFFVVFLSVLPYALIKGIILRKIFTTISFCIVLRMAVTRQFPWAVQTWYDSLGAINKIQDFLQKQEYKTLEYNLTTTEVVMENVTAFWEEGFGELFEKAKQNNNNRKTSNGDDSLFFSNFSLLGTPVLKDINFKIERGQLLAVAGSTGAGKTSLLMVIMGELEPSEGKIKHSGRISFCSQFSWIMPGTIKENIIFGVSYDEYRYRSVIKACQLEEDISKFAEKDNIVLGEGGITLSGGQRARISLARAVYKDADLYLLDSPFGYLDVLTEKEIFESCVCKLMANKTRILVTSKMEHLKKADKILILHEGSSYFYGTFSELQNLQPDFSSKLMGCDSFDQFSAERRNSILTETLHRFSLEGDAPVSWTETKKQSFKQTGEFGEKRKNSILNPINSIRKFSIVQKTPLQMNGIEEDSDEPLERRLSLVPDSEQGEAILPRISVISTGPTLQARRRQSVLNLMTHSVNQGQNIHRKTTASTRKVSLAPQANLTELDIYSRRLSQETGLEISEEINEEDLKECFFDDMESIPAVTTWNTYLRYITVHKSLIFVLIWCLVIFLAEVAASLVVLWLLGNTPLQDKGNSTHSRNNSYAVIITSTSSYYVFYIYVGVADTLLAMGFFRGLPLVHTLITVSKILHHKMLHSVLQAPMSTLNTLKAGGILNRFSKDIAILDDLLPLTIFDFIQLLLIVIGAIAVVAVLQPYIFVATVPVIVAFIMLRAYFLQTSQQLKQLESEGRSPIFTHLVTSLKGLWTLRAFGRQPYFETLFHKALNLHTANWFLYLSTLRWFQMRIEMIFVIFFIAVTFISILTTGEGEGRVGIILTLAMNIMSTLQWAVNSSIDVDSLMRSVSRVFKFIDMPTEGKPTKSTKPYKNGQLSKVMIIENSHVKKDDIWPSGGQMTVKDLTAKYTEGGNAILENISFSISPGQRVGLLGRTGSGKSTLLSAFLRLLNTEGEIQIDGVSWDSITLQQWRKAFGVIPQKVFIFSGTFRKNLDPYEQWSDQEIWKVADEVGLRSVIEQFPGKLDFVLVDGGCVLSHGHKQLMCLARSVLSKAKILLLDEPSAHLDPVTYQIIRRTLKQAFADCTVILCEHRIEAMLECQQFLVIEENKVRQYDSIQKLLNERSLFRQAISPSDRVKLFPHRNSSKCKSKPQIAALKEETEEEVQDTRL

`CCN(c1ccccc1)S(=O)(=O)c1ccc2ncc(C(=O)NCc3ccccc3OC)c(O)c2c1`: the Activity worked out at 50%.
